pIC50: −log10 of the molar value.
How the values were obtained:
MOLM-13 = assay: Antiproliferative activity against FLT3-dependent human MOLM-13 cells expressing FLT3 ITD mutant assessed as reduction in cell viability incubated for 72 hrs by luminescence based assay; format: functional; conditions: MOLM-13, 72 h
[1] = target: T1, Receptor-type tyrosine-protein kinase FLT3 (Homo sapiens, UniProt P36888, ITD); assay: Inhibition of FLT3-ITD mutant (unknown origin) using biotin-tagged TK substrate preincubated for 10 mins followed by substrate and ATP addition and measured after 40 mins by ADP-Glo Kinase Assay
[2] = target: T1, Receptor-type tyrosine-protein kinase FLT3; assay: Inhibition of FLT3-ITD mutant (unknown origin)

T1 sequence (P36888 whole entry, looked up, stated change not applied): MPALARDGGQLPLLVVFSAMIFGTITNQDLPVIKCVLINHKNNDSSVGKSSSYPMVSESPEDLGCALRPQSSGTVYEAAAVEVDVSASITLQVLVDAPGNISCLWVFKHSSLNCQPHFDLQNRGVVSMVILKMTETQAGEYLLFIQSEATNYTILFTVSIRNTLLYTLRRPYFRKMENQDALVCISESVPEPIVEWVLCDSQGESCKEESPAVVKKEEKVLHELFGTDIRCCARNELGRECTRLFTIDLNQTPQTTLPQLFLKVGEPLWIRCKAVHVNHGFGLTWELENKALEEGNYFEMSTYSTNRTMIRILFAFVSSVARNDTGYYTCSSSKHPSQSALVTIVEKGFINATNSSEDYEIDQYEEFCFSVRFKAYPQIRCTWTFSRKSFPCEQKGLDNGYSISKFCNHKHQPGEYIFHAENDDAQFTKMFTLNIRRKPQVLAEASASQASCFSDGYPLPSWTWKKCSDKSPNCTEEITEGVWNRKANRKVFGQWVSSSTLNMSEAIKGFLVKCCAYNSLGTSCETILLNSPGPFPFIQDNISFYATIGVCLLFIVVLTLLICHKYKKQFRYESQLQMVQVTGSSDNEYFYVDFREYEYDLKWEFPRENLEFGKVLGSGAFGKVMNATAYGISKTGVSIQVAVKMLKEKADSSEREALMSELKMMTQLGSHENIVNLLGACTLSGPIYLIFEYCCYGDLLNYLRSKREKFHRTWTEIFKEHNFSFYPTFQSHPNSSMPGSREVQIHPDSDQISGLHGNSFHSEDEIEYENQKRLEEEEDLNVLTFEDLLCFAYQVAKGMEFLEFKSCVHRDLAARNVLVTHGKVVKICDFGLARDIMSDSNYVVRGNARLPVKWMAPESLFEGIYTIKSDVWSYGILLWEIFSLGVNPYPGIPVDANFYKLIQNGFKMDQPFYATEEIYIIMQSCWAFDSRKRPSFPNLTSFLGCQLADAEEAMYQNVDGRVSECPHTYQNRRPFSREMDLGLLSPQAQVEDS

SMILES | pIC50 (MOLM-13) | pIC50 [1] | pIC50 [2]
CCc1nc(C(N)=O)c(Nc2ccc(N3CCN(C(=O)C45CC6CC(CC(C6)C4)C5)CC3)c(OC)c2)nc1NC1CCOCC1 | 5.87 |  | 
CCc1nc(C(N)=O)c(Nc2ccc(N3CCC(N4CCN(C(=O)C56C7C8C5C5C6C7C85C(=O)OC)CC4)CC3)c(OC)c2)nc1NC1CCOCC1 (stereo not given) | 7.59 | 8.67 | 
CCc1nc(C(N)=O)c(Nc2ccc(N3CCC(N4CCN(C(=O)C5CC6C=CC5C6)CC4)CC3)c(OC)c2)nc1NC1CCOCC1 (stereo not given) | 7.26 | 8.32 | 
CCc1nc(C(N)=O)c(Nc2ccc(N3CCC(NC(=O)C4c5ccccc5-c5ccccc54)CC3)c(OC)c2)nc1NC1CCOCC1 | 6.83 |  | 
CCc1nc(C(N)=O)c(Nc2ccc(N3CCC(NC(=O)C45C6C7C4C4C5C6C74C(=O)OC)CC3)c(OC)c2)nc1NC1CCOCC1 (stereo not given) | 7.06 | 8.21 | 
CCc1nc(C(N)=O)c(Nc2ccc(N3CCC(N4CCN(C(=O)C5c6ccccc6-c6ccccc65)CC4)CC3)c(OC)c2)nc1NC1CCOCC1 | 6.81 |  | 
CCc1nc(C(N)=O)c(Nc2ccc(N3CCN(C(=O)C45C6C7C4C4C5C6C74C(=O)OC)CC3)c(OC)c2)nc1NC1CCOCC1 (stereo not given) | 6.95 |  | 
CCCCCCCC/C=C\CCCCCCCC(=O)N1CCN(c2ccc(Nc3nc(NC4CCOCC4)c(CC)nc3C(N)=O)cc2OC)CC1 | 5.61 |  | 
CCCCCCCC/C=C\CCCCCCCC(=O)NC1CCN(c2ccc(Nc3nc(NC4CCOCC4)c(CC)nc3C(N)=O)cc2OC)CC1 | 6.13 |  | 
CCc1nc(C(N)=O)c(Nc2ccc(N3CCC(NC(=O)C45CC6CC(CC(C6)C4)C5)CC3)c(OC)c2)nc1NC1CCOCC1 | 6.00 |  | 
COc1cc(N)ccc1N1CCC(N2CCN(C(=O)OC(C)(C)C)CC2)CC1 |  |  | 6.29
CCc1nc(C(N)=O)c(Nc2ccc(N3CCC(NC(=O)C4CC5C=CC4C5)CC3)c(OC)c2)nc1NC1CCOCC1 (stereo not given) | 7.26 | 8.51 | 
CCc1nc(C(N)=O)c(Nc2ccc(N3CCN(C(=O)OC(C)(C)C)CC3)c(OC)c2)nc1NC1CCOCC1 |  |  | 6.43
CCc1nc(C(N)=O)c(Nc2ccc(N3CCC(N4CCN(C(=O)C56CC7CC(CC(C7)C5)C6)CC4)CC3)c(OC)c2)nc1NC1CCOCC1 | 6.72 |  | 
CCc1nc(C(N)=O)c(Nc2ccc(N3CCN(C(=O)C4CC5C=CC4C5)CC3)c(OC)c2)nc1NC1CCOCC1 (stereo not given) | 7.20 | 8.89 | 
CCc1nc(C(N)=O)c(Nc2ccc(N3CCN(C(=O)C4c5ccccc5-c5ccccc54)CC3)c(OC)c2)nc1NC1CCOCC1 | 6.85 |  | 
CCCCCCCC/C=C\CCCCCCCC(=O)N1CCN(C2CCN(c3ccc(Nc4nc(NC5CCOCC5)c(CC)nc4C(N)=O)cc3OC)CC2)CC1 | < 5.00 |  | 
CC(C)(C)OC(=O)N1CCNCC1 |  |  | 6.25
CCc1nc(C(N)=O)c(Nc2ccc(N3CCC(N4CCN(C)CC4)CC3)c(OC)c2)nc1NC1CCOCC1 [GILTERITINIB] | 7.65 |  | 
CCCCCCCC/C=C\CCCCCCCC(=O)O [OLEIC ACID] |  |  | 6.29
